US20070275936A1, “Formulations and Treatment Methods” (priority 1998, published 2007)
Read-outs that look alike come from different tables or passages of the source.

What was measured:
[1] = system: Chloroquine sensitive T996/86 P. falciparum; experiment: In vitro antimalarial testing (schizont inhibition / 3H-hypoxanthine incorporation); format: cell-based
Method: For in vitro antimalarial testing, micro-titer plates were used. The concentration of drugs were prepared as pMol/well according to WHO standard procedures (WHO, 1990). The test compound was dissolved in 15% DMSO in sterile RPMI-1640. Both chloroquine sensitive (e.g., WS/97) and resistant (e.g., MN/97) isolates of Plasmodium species are used.
A schizont inhibition assay was performed as follows. The micro-titer plates were predosed with various concentrations of the test compound. 50 μL of parasitised erythrocyte suspension in RPMI-1640 (0.2 mL erythrocyte+0.3 mL serum+4-5 ml RPMI-1640) were dispensed in microtiter wells that contained various concentrations of drug. Triplicate readings were made for each concentration.
A ^3H-hypoxanthine incorporation assay was performed as follows. The testing was carried out according to the procedure of Desjardins et al. 1979. After 30 hr culture at 37 degrees C., the same microtiter plates from schizont inhibition assays with another triplicate wells were pulsed with ^3H-hypoxanthine for overnight. The cell suspensions were washed twice on millipore glass fiber filter with Millipore filter apparatus. The filter discs were counted for DPM by a Beckman LS6000 β-scintillation counter. The activity of the drug was measured by plotting DPM against concentration of drug.

P. berghei HP15 ANKA = experiment: Four-day in vivo suppressive test in TO mice; design: species or system Plasmodium berghei; conditions: day 5 blood films, 5 equals control
Method: The 4-day suppressive test has been widely used and it can be performed within a 1 week period. The test consists of the inoculation of parasitised erythrocytes on the first day of the experiment (D0), followed by an injection of the test compound, which is also administered on the 2nd, 3rd and 4th days of the protocol. On the 5th day, blood films are taken and antimalarial activity is assessed either by calculating parasitemia, or by scoring parasite numbers on a predetermined scale (i.e., 1-5).
The protocol is summarized as follows. Five female TO mice were used per test group. P. berghei HP15 ANKA parasites were collected by cardiac puncture using a heparinised syringe from a donor mouse having a 30+% parasitaemia. The blood was diluted with diluting agent (50% HIFCS+50% sterile PBS) to a final concentration of 1% parasitaemia or 1×10^7 infected erythrocytes per 0.2 mL of the infecting suspension. […] The steroid formulations were administered intraperitoneally 2 hours after parasite inoculation. The compounds were administered once a day starting on Do, and continued on the following three days. Blood films were made from tail blood on the day after the last dosing of compound and the blood was fixed with 100% methanol and stained with 10% Giemsa. Parasitaemias were scored on a scale of 0-5, where 5 is equal to the control.
An inoculum of 1% parasitaemia […], 0.2 mL per mouse (female strain TO mice), was delivered by intravenous injection. Drug administration commenced 2 hours after inoculation on Day 1 and continued for 3 days.

Plasmodium berghei = experiment: Lewis rat in vivo parasitemia study; conditions: Lewis rats, chloroquine 40 mg/kg i.v. days 0-3
BALB/c mice = experiment: Reversal of immunosenescence: HBsAg vaccination of aged mice; format: in vivo; conditions: for mice producing anti-HBsAg in response to secondary vaccination: groups of 8, 0.3 mg/mouse at primary vaccination; for mice with increased anti-HBsAg antibody titer following secondary vaccination: groups of 8, 3 mg/mouse at primary vaccination
Method: Healthy aged (20-month) or immunologically-mature (3-month) BALB/c mice were vaccinated with hepatitis B surface antigen (HBsAg) (2 μg; Recombivax-HB; Merck) and Alum (2.75 μg). The aged mice were vaccinated with the antigen and also received a single subcutaneous injection of either 0.3 mg or 3.0 mg of 3β,7β,17β-trihydroxyandrost-5-ene (AET), BrEA or 7-oxodehydroepiandrosterone, dehydroepiandrosterone or the vehicle (placebo control). The AET, BrEA hemihydrate or dehydroepiandrosterone was present in a formulation that contained 60 mg/mL of the compound suspended in 0.1% w/v carboxymethyl cellulose sodium in 0.9% saline. 7-Oxodehydroepiandrosterone was in a formulation that contained 60 mg/mL of the compound suspended in 0.1% w/v gum arabic in 0.9% saline. A concentration of 6 mg/mL was obtained by diluting the 60 mg/mL formulation with vehicle that lacked the active substance.
Blood samples were collected 14, 21 and 34 days after treatment and the sera were analyzed by ELISA to determine the concentration of HBsAg-specific IgG (total IgG). In addition, samples obtained on day 21 were analyzed to determine the concentration of HBsAg-specific IgG1 and IgG2a subclasses. The results summarized below were average values obtained with blood samples collected 21 days after vaccination of groups of 8 mice. Subcutaneous injection was performed after shaving the hair from the thighs of each mouse. The injected volume was 50 μL for compound (3.0 mg or 0.3 mg) or placebo, and for vaccine preparation. The vehicle control consisted of carboxymethylcellulose (0.5%) in saline (0.9%). Antibody titers were determined by ELISA.
Secondary antibody response. Later, 42 days after the initial exposure to HBsAg, serum samples were taken from the mice described in the previous section and these were tested for anti-HBsAg IgG. At this time-point, vaccine-specific IgG titers were either low or undetectable. Three days later (45 days after first vaccination), the mice were injected again with HBsAg in Alum, but this time, none of the mice received immunosteroid (secondary vaccination). Serum samples collected 7 days and 14 days after the second exposure to HBsAg vaccine were assayed for anti-HBsAg antibody. […] In contrast, in aged mice that had received no immunosteroid with the first HBsAg injection, low levels of anti-HBsAg were detectable, and only in 4 of the 8 mice in this group was antibody detectable. Increases in anti-HBsAg titers were seen following secondary vaccination in aged animals that had been treated with immunosteroid in conjunction with the first HBsAg exposure. The anti-HBsAg antibody titer in serum increased following secondary vaccination in all 8 mice in the groups of aged mice that were treated at primary vaccination with the higher dose (3 mg/mouse) of AET, BrEA or 7-oxodehydroepiandrosterone, or with dehydroepiandrosterone (0.3 mg/mouse). In those aged mice that had received the lower dose (0.3 mg/mouse) of AET, BrEA or 7-oxodehydroepiandrosterone at vaccination, an intermediate response was seen, with 6 of the 8 mice producing detectable anti-HBsAg in response to secondary vaccination.

Sprague Dawley rats = experiment: TNBS induced distal colitis in rats; format: in vivo; conditions: day 14
Method: In another protocol formula 1 compounds were used in a similar animal model. Groups of 10 male Sprague Dawley rats (250-300 grams) were fasted for 24 hours before 2,4,6-trinitrobenzene sulfonic acid (TNBS) or saline challenge. This model presents a severe challenge to the animal's immune system. On Day 0, the rats were lightly anesthetized and a catheter inserted rectally into the colon such that the tip was 8 cm proximal to the anus. Distal colitis was induced by intra-colonic instillation of 0.5 mL of an ethanolic solution of TNBS (60 mg/mL ethanol 50% in water). The test substance, 7-oxodehydroepiandrosterone 20 mg/mL in vehicle or vehicle control was administered by subcutaneous injection (0.1 mL/injection) once a day for 6 days, the first dose being given 30 minutes after TNBS challenge. Sulfasalazine (30 mg/mL in 2% Tween 80 in distilled water) or vehicle control was administered orally (PO) once a day (10 mL/kg/day) for 7 days, the first two doses beginning 24 hours and 2 hours before […] challenge. Signs of diarrhea were recorded daily by examining the anal area. Animals were fasted for 24 hours prior to sacrifice on day 14 and the colon was removed and weighed. After gross observations of colonic tissues, 3 samples were taken from regions approximately 1, 3, and 8 cm proximal to the anus. If gross ulcers or inflammation were present, at least one sample was taken from the affected region. Before removal of the colon, signs of adhesion between the colon and other organs were recorded. […] Body weight, colon-to-body-weight ratio, and damage scores were assessed. Visible damage was scored on a 1-5 scale as follows: 0=No damage; 1=Localized hyperemia but no ulcers; 2=linear ulcers with no significant inflammation; 3=Linear ulcers with inflammation at one site; 4=Two or more sites of ulceration and/or inflammation; 5=Two or more major sites of ulceration and inflammation or one major site of ulceration and inflammation extending more than 1 cm along the length of the colon. […]

Wistar rats = experiment: DNBS induced distal colitis in rats; format: in vivo; conditions: for adhesions / colonic ulceration / diarrhea: DNBS rats; for adhesions / colonic ulceration: first study, groups of 3; for diarrhea: 7-oxodehydroepiandrosterone 2 and 20 mg/mL s.c., sulfasalazine PO, AET 20 mg/kg; for animals with moderate acute inflammation: 5 of 10 in immunosteroid vehicle controls; for animals with severe chronic inflammation: 14 days after DNBS challenge, 8 of 10 in immunosteroid vehicle controls
Method: Groups of 3 male Wistar rats (180±20 grams) fasted for 24 hours before 2,4-dinitrobenzene sulfonic acid (DNBS) or saline challenge were used. Distal colitis was induced by intra-colonic instillation of 0.5 mL of an ethanolic solution of DNBS (30 mg in 0.5 mL of a 30% ethanol in saline solution) after which 2 mL of air was injected through the cannula to ensure that the solution remained in the colon. The volume used was 0.1 mL per injection of 2 and 20 mg/mL of 7-oxodehydroepiandrosterone in a liquid formulation, was administered by subcutaneous injection once a day for 6 days. The formulation contained […] of 7-oxodehydroepiandrosterone in a non-aqueous suspension that contained 2% benzyl alcohol w/v, 0.1% Brij 96 w/v and equal volumes of PEG 300 and propylene glycol. Concentrations of 2 mg/mL and 20 mg/mL were obtained by diluting the […] with vehicle that lacked the active substance.
The first dose was given 30 minutes after DNBS challenge. Sulfasalazine (30 mg/mL in 2% Tween 80 in distilled water) was administered orally (PO) once a day (10 mL/kg/day) for 7 days, the first two doses beginning 24 hours and 2 hours before DNBS challenge. The presence of diarrhea was recorded daily by examining the anal area. Animals were fasted for 24 hours prior to being sacrificed. Animals were sacrificed on day 7 or day 8 and their colons were removed and weighed. Before removal of the colon, signs of adhesion between the colon and other organs were recorded. Also, the presence of ulcerations was noted after weighing of each colon. The “net” change of colon-to-body weight (BW) ratio was normalized relative to saline-challenged baseline group. A 30% decrease in “net” colon-to-body weight ratio was considered significant.
A total of five studies were conducted. Data from the first study are reported in this report. The 7-oxodehydroepiandrosterone at 2 and 20 mg/mL, decreased the net colon-to-body weight ratio by 19 and by 14% relative to vehicle-treated group, respectively. […] The formula 1 compound 3β,7β,17β-trihydroxyandrost-5-ene (AET) was administered by subcutaneous injections of 2 and 20 mg/day for 5 or 6 days, with the first dose injected 30 minutes post-DNBS challenge. The AET formulation was the same as the 7-oxodehydroepiandrosterone formulation, except that AET replaced 7-oxodehydroepiandrosterone. AET decreased the net colon-to-body weight ratio by 15% and 21% relative to controls (see the table below). Animals treated with AET (20 mg/kg) had no diarrhea. […] The same formulations containing BrEA hemihydrate (100 mg/mL) or dehydroepiandrosterone (20 mg/mL) decreased the net colon-to-body weight ratio by 21 and 3%, respectively relative to controls.

[2] = T996/86 P. falciparum in vitro, read-out: IC50

Etienic Acid Methyl Ester
% inhibition ([1]; 0.938 μM): 43.3%
% inhibition ([1]; 1.875 μM): 41%
% inhibition ([1]; 3.25 μM): 46%
% inhibition ([1]; 7.5 μM): 40.9%
% inhibition ([1]; 15 μM): 45.7%
% inhibition ([1]; 30 μM): 60%
IC50 [1, 2]: 19.5 µM

Etienic Acid
Parasitaemia Score (0-5) (P. berghei HP15 ANKA; 100 mg/kg × 4 days i.p.): 2

Etianic Acid Methyl Ester
% inhibition ([1]; 0.938 μM): 47.1%
% inhibition ([1]; 1.875 μM): 43.4%
% inhibition ([1]; 3.25 μM): 41.4%
% inhibition ([1]; 7.5 μM): 45.3%
% inhibition ([1]; 15 μM): 47.4%
% inhibition ([1]; 30 μM): 61.5%
IC50 [1, 2]: 17.5 µM

CCN(CC)CCCC(C)Nc1ccnc2cc(Cl)ccc12 (centres unmarked) [Chloroquine, reference compound]
% RBC parasitemia (Plasmodium berghei; Day 4, saline control 16%): 10%
% RBC parasitemia (Plasmodium berghei; Day 11, saline control 36%): 16%
IC50 ([1]; Plasmodium falciparum, T996): 0.009 µM
inhibition at 0.00625 µM ([1]; Plasmodium falciparum, T996): 27.2%
inhibition at 0.0125 µM ([1]; Plasmodium falciparum, T996): 86.8%
inhibition at 0.025 µM ([1]; Plasmodium falciparum, T996): 94.5%
inhibition at 0.05 µM ([1]; Plasmodium falciparum, T996): 97.3%
inhibition at 0.1 µM ([1]; Plasmodium falciparum, T996): 94.6%
inhibition at 0.2 µM ([1]; Plasmodium falciparum, T996): 95.9%
Parasitaemia Score (0-5) (P. berghei HP15 ANKA; 3 mg/kg × 4 days i.p.): 1

C[C@]12CC[C@H](O)CC1=CC(=O)[C@@H]1[C@@H]2CC[C@]2(C)C(=O)CC[C@@H]12 [7-oxodehydroepiandrosterone]
mice producing anti-HBsAg in response to secondary vaccination (BALB/c mice): 6 mice
mice with increased anti-HBsAg antibody titer following secondary vaccination (BALB/c mice): 8 mice
histopathology: inflammation / lesion frequency and severity versus controls (Sprague Dawley rats): exacerbated the inflammation
adhesions (Wistar rats): Adhesions were absent in all three tested animals
colonic ulceration (Wistar rats): 1/3
diarrhea (Wistar rats): All animals had diarrhea

O=C(O)c1cc(/N=N/c2ccc(S(=O)(=O)Nc3ccccn3)cc2)ccc1O [Sulfasalazine]
animals with severe acute inflammation (Wistar rats; 7 days after DNBS challenge, 3 of 10 in immunosteroid vehicle controls): 3 animals
animals with moderate acute inflammation (Wistar rats; 7 days after DNBS challenge): 6 animals
animals with severe chronic inflammation (Wistar rats): 2 animals
adhesions (Wistar rats): no animals exhibited adhesions or colonic ulceration
colonic ulceration (Wistar rats): no animals exhibited adhesions or colonic ulceration
diarrhea (Wistar rats): all animals treated with Sulfazalazine had diarrhea

C[C@]12CC[C@H]3[C@@H]([C@@H](O)C=C4C[C@@H](O)CC[C@@]43C)[C@@H]1CC[C@@H]2O [AET, 3β,7β,17β-trihydroxyandrost-5-ene]
mice producing anti-HBsAg in response to secondary vaccination (BALB/c mice): 6 mice
mice with increased anti-HBsAg antibody titer following secondary vaccination (BALB/c mice): 8 mice
animals with moderate acute inflammation (Wistar rats; 7 days after DNBS challenge): 6 animals
animals with severe chronic inflammation (Wistar rats): 3 animals
animals with ulcers (Wistar rats; 14 days after challenge, treatment began the same day as challenge): 1 animal
adhesions (Wistar rats): Adhesion was absent
diarrhea (Wistar rats): no diarrhea
